In patent US12534457B2, “Heteroaryl derivative compounds, and uses thereof” (Voronoi Inc., priority 2021, dated 2026):

Key:
[1] = system: Ba/F3 cells expressing EGFR Del19/C797S (EGFR DC); assay: Proliferation inhibitory activity, Ba/F3 cells expressing EGFR Del19/C797S (CellTiter-Glo); type: cell-based; details: Mus musculus, BaF3, 72 hours of compound treatment
In short: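 Viability after 72 h of compound exposure was measured by luminescence (CellTiter-Glo) in Ba/F3 lines transduced with mutant EGFR. Final concentrations spanned 0.2 nM–5 μM over 12 threefold steps. Growth relative to untreated control gave GI50 values; each test was run three times.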

[2] = system: Ba/F3 cells expressing EGFR L858R/C797S (EGFR LC); assay: Proliferation inhibitory activity, Ba/F3 cells expressing EGFR L858R/C797S (CellTiter-Glo); type: cell-based; details: Mus musculus, BaF3, 72 hours of compound treatment
Protocol: The following experiments were performed to evaluate the inhibitory activity of the compounds according to the present disclosure on Ba/F3 proliferation expressing EGFR C797S, L861Q, G719A, S768I, L718Q, and/or G724S mutations.
For Ba/F3 cells, RPMI-1640 containing 10% FBS and 5 ng/ml IL-3 (R&D Systems) was used. Transduced Ba/F3 cells were cultured after adding 1 μg/ml puromycin (Invitrogen) to the same medium.
At 24 hours before treatment with the compounds, 3000 to 5000 cells were aliquoted into each well of a white clear bottom 96 well plate (Corning). The compounds were diluted in dimethyl sulfoxide (3 times dilution, 12 concentrations in total), and injected in an amount of 1 μl so that the final concentration was 0.2 nM to 5 uM. For measurement of living cells, after 72 hours of compound treatment, the cells were stored at room temperature for 10 min using CellTiter-Glo luminescentcell-viability reagent (Promega), and then luminescence intensity was measured using a reader (SynergyNeo, Biotek). Each test was repeated three times. Result values were calculated as the cell growth rate (%) compared to the control. The graphs were created using GraphPad Prism version 8.3.0 program and the GI50 values were calculated.

GI50 [1] | GI50 [2] | Compound
< 50 nM | < 50 nM | COc1cc(Nc2cc(N3OCC[C@@H]3c3cccc(F)c3F)ncn2)ccc1N1CCC(N2CCN(C)CC2)CC1 [Example 128, (R)-6-(3-(2,3-difluorophenyl)isoxazolidin-2-yl)-N-(3-methoxy-4-(4-(4-methylpiperazin-1-yl)piperidin-1-yl)phenyl)pyrimidin-4-amine]
< 50 nM | < 50 nM | COc1cc(N2CCC(N3CCN(C)CC3)CC2)c(Cl)cc1Nc1cc(N2OCC[C@@H]2c2ccccc2)ncn1 [Example 132, (R)—N-(5-chloro-2-methoxy-4-(4-(4-methylpiperazin-1-yl)piperidin-1-yl)phenyl)-6-(3-phenylisoxazolidin-2-yl)pyrimidin-4-amine]
50 to 500 nM | – | Cn1cc(Nc2cc(N3OCC[C@@H]3c3ccccc3)ncn2)cn1 [Example 133, (R)—N-(1-methyl-1H-pyrazol-4-yl)-6-(3-phenylisoxazolidin-2-yl)pyrimidin-4-amine]
< 50 nM | – | COc1cc(N2CCC(N3CCN(C(C)C)CC3)CC2)ccc1Nc1cc(N2OCC[C@@H]2c2cccc(F)c2F)ncn1 [Example 222, (R)-6-(3-(2,3-difluorophenyl)isoxazolidin-2-yl)-N-(4-(4-(4-isopropylpiperazin-1-yl)piperidin-1-yl)-2-methoxyphenyl)pyrimidin-4-amine]
< 50 nM | – | CN1CCN(c2ccc(Nc3cc(N4OCC[C@@H]4c4ccccc4)ncn3)cc2OCC(F)(F)F)CC1 [Example 139, (R)—N-(4-(4-methylpiperazin-1-yl)-3-(2,2,2-trifluoroethoxy)phenyl)-6-(3-phenylisoxazolidin-2-yl)pyrimidin-4-amine]
< 50 nM | – | COc1cc(N2CCC(N3CCOCC3)CC2)ccc1Nc1cc(N2OCC[C@@H]2c2ccccc2)ncn1 [Example 120, (R)—N-(2-methoxy-4-(4-morpholinopiperidin-1-yl)phenyl)-6-(3-phenylisoxazolidin-2-yl)pyrimidin-4-amine]
< 50 nM | – | c1ccc([C@H]2CCON2c2cc(Nc3ccc(N4CCN(C5COC5)CC4)cc3)ncn2)cc1 [Example 124, (R)—N-(4-(4-(oxetan-3-yl)piperazin-1-yl)phenyl)-6-(3-phenylisoxazolidin-2-yl)pyrimidin-4-amine]
< 50 nM | – | CN1CCC(c2ccc(Nc3cc(N4OCC[C@@H]4c4cc(F)cc(F)c4)ncn3)c3c2CCO3)CC1 [Example 155, (R)-6-(3-(3,5-difluorophenyl)isoxazolidin-2-yl)-N-(4-(1-methylpiperidin-4-yl)-2,3-dihydrobenzofuran-7-yl)pyrimidin-4-amine]
< 50 nM | – | CCC(=O)Nc1cc(Nc2cc(N3OCC[C@@H]3c3cccs3)ncn2)c(OC)cc1N1CCC(N2CCN(C3CC3)CC2)CC1 [Example 163, (R)—N-(2-(4-(4-cyclopropylpiperazin-1-yl)piperidin-1-yl)-4-methoxy-5-((6-(3-(thiophene-2-yl)isoxazolidin-2-yl)pyrimidin-4-yl)amino)phenyl)propionamide]
< 50 nM | – | COc1cc(N2CCC(N3CCN(C4CCC4)CC3)CC2)ccc1Nc1cc(N2OCC[C@@H]2c2cccc(F)c2F)ncn1 [Example 208, (R)—N-(4-(4-(4-cyclobutylpiperazin-1-yl)piperidin-1-yl)-2-methoxyphenyl)-6-(3-(2,3-difluorophenyl)isoxazolidin-2-yl)pyrimidin-4-amine]
< 50 nM | – | COc1cc(N2CCC(N3CCN(CCS(C)(=O)=O)CC3)CC2)ccc1Nc1cc(N2OCC[C@@H]2c2cccc(F)c2F)ncn1 [Example 237, (R)-6-(3-(2,3-difluorophenyl)isoxazolidin-2-yl)-N-(2-methoxy-4-(4-(4-(2-(methylsulfonyl)ethyl)piperazin-1-yl)piperidin-1-yl)phenyl)pyrimidin-4-amine]
50 to 500 nM | – | COc1cc(N2CCC(N3CCN(C)CC3)CC2)ccc1Nc1cc(N2OCC[C@@H]2c2cc(F)cc(C#N)c2)ncn1 [Example 170, (R)-3-fluoro-5-(2-(6-((2-methoxy-4-(4-(4-methylpiperazin-1-yl)piperidin-1-yl)phenyl)amino)pyrimidin-4-yl)isoxazolidin-3-yl)benzonitrile]
< 50 nM | – | Cn1cc(-c2cc(Nc3cc(N4OCC[C@@H]4c4ccccc4)ncn3)c(OCC(F)(F)F)cc2N2CCC(N3CCOCC3)CC2)cn1 [Example 165, (R)—N-(5-(1-methyl-1H-pyrazol-4-yl)-4-(4-morpholinopiperidin-1-yl)-2-(2,2,2-trifluoroethoxy)phenyl)-6-(3-phenylisoxazolidin-2-yl)pyrimidin-4-amine]
< 50 nM | – | COc1cc(N2CCC(N3CCN(C)[C@H](C)C3)CC2)ccc1Nc1cc(N2OCC[C@@H]2c2cccc(F)c2F)ncn1 [Example 213, 6-((R)-3-(2,3-difluorophenyl)isoxazolidin-2-yl)-N-(4-(4-((R)-3,4-dimethylpiperazin-1-yl)piperidin-1-yl)-2-methoxyphenyl)pyrimidin-4-amine]

Continued, compound first:

Compound | GI50 [1] | GI50 [2]
COc1cc(Nc2cc(N3OCC[C@@H]3c3ccccc3)ncn2)ccc1N1CCN(C2CCN(C)CC2)CC1 [Example 102, (R)—N-(3-methoxy-4-(4-(1-methylpiperidin-4-yl)piperazin-1-yl)phenyl)-6-(3-phenylisoxazolidin-2-yl)pyrimidin-4-amine] | < 50 nM | < 50 nM
COc1cc(N2CCC(N3CCN(C)CC3)CC2)ccc1Nc1cc(N2OCC[C@@H]2c2ccccc2)ncn1 [Example 5, (R)—N-(2-methoxy-4-(4-(4-methylpiperazin-1-yl)piperidin-1-yl)phenyl)-6-(3-phenylisoxazolidin-2-yl)pyrimidin-4-amine] | < 50 nM | < 50 nM
CN1CCN(C2CCN(c3cc(Nc4cc(N5OCC[C@@H]5c5cc(F)cc(F)c5)ncn4)cc(S(C)(=O)=O)c3)CC2)CC1 [Example 11, (R)-6-(3-(3,5-difluorophenyl)isoxazolidin-2-yl)-N-(3-(4-(4-methylpiperazin-1-yl)piperidin-1-yl)-5-(methylsulfonyl)phenyl)pyrimidin-4-amine] | 50 to 500 nM | 50 to 500 nM
Cc1cc(Nc2cc(N3OCC[C@@H]3c3ccc(F)cc3F)ncn2)ccc1N1CCC(N2CCN(C)CC2)CC1 [Example 104, (R)-6-(3-(2,4-difluorophenyl)isoxazolidin-2-yl)-N-(3-methyl-4-(4-(4-methylpiperazin-1-yl)piperidin-1-yl)phenyl)pyrimidin-4-amine] | < 50 nM | < 50 nM
CN1CCN(c2cc(Nc3cc(N4OCC[C@@H]4c4cc(F)cc(F)c4)ncn3)cc(S(C)(=O)=O)c2)CC1 [Example 13, (R)-6-(3-(3,5-difluorophenyl)isoxazolidin-2-yl)-N-(3-(4-methylpiperazin-1-yl)-5-(methylsulfonyl)phenyl)pyrimidin-4-amine] | 50 to 500 nM | 50 to 500 nM
COc1cc(N2CCC(N3CCC(N(C)C)CC3)CC2)c(-c2cnn(C)c2)cc1Nc1cc(N2OCC[C@@H]2c2cc(F)cc(F)c2)ncn1 [Example 10, (R)-1′-(4-((6-(3-(3,5-difluorophenyl)isoxazolidin-2-yl)pyrimidin-4-yl)amino)-5-methoxy-2-(1-methyl-1H-pyrazol-4-yl)phenyl)-N,N-dimethyl-[1,4′-bipiperidin]-4-amine] | 50 to 500 nM | 50 to 500 nM
COc1cc(N2CCC(N3C[C@H]4C[C@@H]3CN4C)CC2)ccc1Nc1cc(N2OCC[C@@H]2c2ccccc2)ncn1 [Example 57, N-(2-methoxy-4-(4-((1R,4R)-5-methyl-2,5-diazabicyclo[2.2.1]heptan-2-yl)piperidin-1-yl)phenyl)-6-((R)-3-phenylisoxazolidin-2-yl)pyrimidin-4-amine] | < 50 nM | –
FC(F)(F)c1cccc(Nc2cc(N3OCC[C@@H]3c3ccccc3)ncn2)c1 [Example 73, (R)-6-(3-phenylisoxazolidin-2-yl)-N-(3-(trifluoromethyl)phenyl)pyrimidin-4-amine] | 50 to 500 nM | –
COc1cc(N2C[C@H]3C[C@@H]2CO3)ccc1Nc1cc(N2OCC[C@@H]2c2ccccc2)ncn1 [Example 59, N-(4-((1R,4R)-2-oxa-5-azabicyclo[2.2.1]heptan-5-yl)-2-methoxyphenyl)-6-((R)-3-phenylisoxazolidin-2-yl)pyrimidin-4-amine] | < 50 nM | –
COc1cc(N2CCC(N3CCN(C)CC3)CC2)ccc1Nc1ncnc(N2OCC[C@@H]2c2ccccc2)n1 [Example 112, (R)—N-(2-methoxy-4-(4-(4-methylpiperazin-1-yl)piperidin-1-yl)phenyl)-4-(3-phenylisoxazolidin-2-yl)-1,3,5-triazin-2-amine] | 50 to 500 nM | –
CN(C)CCN(C)c1ccc(Nc2cc(N3OCC[C@@H]3c3cc(F)cc(F)c3)ncn2)cc1 [Example 19, (R)—N^1-(6-(3-(3,5-difluorophenyl)isoxazolidin-2-yl)pyrimidin-4-yl)-N^4-(2-(dimethylamino)ethyl)-N^4-methylbenzene-1,4-diamine] | 50 to 500 nM | –
CCN1CC2CC(C1)N2C1CCN(c2ccc(Nc3cc(N4OCC[C@@H]4c4cccc(F)c4F)ncn3)c(OC)c2)CC1 [Example 220, 6-((R)-3-(2,3-difluorophenyl)isoxazolidin-2-yl)-N-(4-(4-(3-ethyl-3,6-diazabicyclo[3.1.1]heptan-6-yl)piperidin-1-yl)-2-methoxyphenyl)pyrimidin-4-amine] | < 50 nM | –
